How the values were obtained:
blackgrass = assay: Test B pre/postemergence blackgrass; type: in vivo, Alopecurus myosuroides
In short: (§1)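 Test chemicals in a non-phytotoxic solvent mixture with surfactant were sprayed preemergence onto planted seeds and postemergence onto plants 2 to 18 cm tall (1- to 4-leaf stage). After twelve to sixteen days in a greenhouse, injury was visually rated against untreated controls from 0 (no effect) to 10 (complete control).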

velvetleaf = assay: Test B pre/postemergence velvetleaf; type: in vivo, Abutilon theophrasti
In short: as §1

sugar beet = assay: Test B pre/postemergence sugar beet; type: in vivo, Beta vulgaris
In short: as §1

surinam grass = assay: Test B pre/postemergence surinam grass; type: in vivo, Brachiaria decumbens
In short: as §1

corn = assay: Test B pre/postemergence corn; type: in vivo, Zea mays
In short: as §1

giant foxtail = assay: Test B pre/postemergence giant foxtail; type: in vivo, Setaria faberii
In short: as §1

smallflower flatsedge = assay: Test B flood test smallflower flatsedge; type: in vivo, Cyperus difformis
In short: (§2)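 Plants were grown to the 2-leaf stage before treatment with test chemical, then held in a greenhouse for twelve to sixteen days. Injury was visually rated against untreated controls on a 0–10 scale, where 0 is no effect and 10 is complete control.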

purple nutsedge = assay: Test B pre/postemergence purple nutsedge; type: in vivo, Cyperus rotundus
In short: as §1

duck salad = assay: Test B flood test duck salad; type: in vivo, Heteranthera limosa
In short: as §2

wheat = assay: Test B pre/postemergence wheat; type: in vivo, Triticum aestivum
In short: as §1

bamyardgrass = assay: Test B flood test barnyardgrass; type: in vivo, Echinochloa crus-galli
In short: as §2

rice = assay: Test B flood test rice; type: in vivo, Oryza sativa
In short: as §2

morningglory = assay: Test B pre/postemergence morningglory; type: in vivo, Ipomoea hederacea
In short: as §1

bedstraw = assay: Test B pre/postemergence bedstraw; type: in vivo, Galium aparine
In short: as §1

crabgrass = assay: Test B pre/postemergence crabgrass; type: in vivo, Digitaria sanguinalis
In short: as §1

cocklebur = assay: Test B pre/postemergence cocklebur; type: in vivo, Xanthium strumarium
In short: as §1

pigweed = assay: Test B pre/postemergence pigweed; type: in vivo, Amaranthus retroflexus
In short: as §1

soybean = assay: Test B pre/postemergence soybean; type: in vivo, Glycine max
In short: as §1

wild oat = assay: Test B pre/postemergence wild oat; type: in vivo, Avena fatua
In short: as §1

rape = assay: Test B pre/postemergence rape; type: in vivo, Brassica napus
In short: as §1

[1] = Preemergence, Rate 62 g/ha, scale of 0 to 10 where 0 is no effect and 10 is complete control
[2] = Preemergence, Rate 250 g/ha, scale of 0 to 10 where 0 is no effect and 10 is complete control
[3] = Preemergence, Rate 500 g/ha, scale of 0 to 10 where 0 is no effect and 10 is complete control
[4] = Rate 62 g/ha, Postemergence, scale of 0 to 10 where 0 is no effect and 10 is complete control
[5] = Rate 125 g/ha, Postemergence, scale 0 to 10
[6] = Rate 125 g/ha, Preemergence, scale of 0 to 10 where 0 is no effect and 10 is complete control
[7] = Rate 500 g/ha, Postemergence, scale 0 to 10, 0 no effect, 10 complete control
[8] = Rate 62 g/ha, headed Pre-emergence (flood test species), scale 0 to 10 (0 no effect, 10 complete control)
[9] = Rate 125 g/ha, Pre-emergence, flood test species, scale 0 to 10 where 0 is no effect and 10 is complete control
[10] = Rate 250 g/ha, Pre-emergence, flood-test species, scale 0 to 10, 0 is no effect, 10 is complete control
[11] = Rate 500 g/ha, Pre-emergence, flood test species, scale 0 to 10 (0 no effect, 10 complete control)

CC(C)N(C(=O)n1oc(=O)n(CCC2CCCCC2)c1=O)c1ccc(F)cc1 [Compound 257]
3: Plant response rating, B. signalgrass (surinam grass; [3]) | Giant foxtail plant response rating (giant foxtail; [1])
9: Plant response rating, Giant foxtail (giant foxtail; [3])
2: Blackgrass plant response rating (blackgrass; [7]) | Giant foxtail plant response rating (giant foxtail; [7]) | Morningglory plant response rating (morningglory; [2]) | Crabgrass plant response rating (crabgrass; [2]) | Crabgrass plant response rating (crabgrass; [6]) | Plant response rating (0 to 10; 0 is no effect, 10 is complete control), Crabgrass (crabgrass; Rate 250 g/ha, Postemergence) | Plant response rating (0 to 10; 0 is no effect, 10 is complete control), Rape (rape; Rate 250 g/ha, Postemergence)
4: Plant response rating, Wheat (wheat; [3]) | Plant response rating, Morningglory (morningglory; [3]) | Crabgrass plant response rating (crabgrass; [7]) | Plant response rating, Redroot pigweed (pigweed; [3]) | Plant response rating (0 to 10; 0 is no effect, 10 is complete control), Redroot pigweed (pigweed; Rate 250 g/ha, Postemergence) | Soybean plant response rating (soybean; [7]) | Plant response rating, Wild oats (wild oat; [3])
1: Plant response rating (0 to 10; 0 is no effect, 10 is complete control), Blackgrass (blackgrass; Rate 250 g/ha, Postemergence) | Velvetleaf plant response rating (velvetleaf; [7])
0: Blackgrass plant response rating (blackgrass; [1]) | Blackgrass plant response rating (blackgrass; [2]) | Plant response rating, Blackgrass (blackgrass; [3]) | Blackgrass plant response rating (blackgrass; [4]) | Blackgrass plant response rating (blackgrass; [5]) | Blackgrass plant response rating (blackgrass; [6]) | Velvetleaf plant response rating (velvetleaf; [1]) | Velvetleaf plant response rating (velvetleaf; [2]) | Plant response rating, Velvetleaf (velvetleaf; [3]) | Velvetleaf plant response rating (velvetleaf; [6]) | Sugarbeets plant response rating (sugar beet; [1]) | Sugarbeets plant response rating (sugar beet; [2]) | Plant response rating, Sugarbeets (sugar beet; [3]) | Sugarbeets plant response rating (sugar beet; [6]) | B. signalgrass plant response rating (surinam grass; [1]) | B. signalgrass plant response rating (surinam grass; [2]) | B. signalgrass plant response rating (surinam grass; [4]) | B. signalgrass plant response rating (surinam grass; Rate 125 g/ha, Postemergence, scale 0 (no effect) to 10 (complete control)) | B. signalgrass plant response rating (surinam grass; [6]) | Plant response rating (0 to 10; 0 is no effect, 10 is complete control), B. signalgrass (surinam grass; Rate 250 g/ha, Postemergence) | B. signalgrass plant response rating (surinam grass; [7]) | Corn plant response rating (corn; [1]) | Corn plant response rating (corn; [2]) | Plant response rating, Corn (corn; [3]) | Corn plant response rating (corn; [4]) | Corn plant response rating (corn; [5]) | Corn plant response rating (corn; [6]) | Plant response rating (0 to 10; 0 is no effect, 10 is complete control), Corn (corn; Rate 250 g/ha, Postemergence) | Corn plant response rating (corn; [7]) | Plant response rating (0 to 10; 0 is no effect, 10 is complete control), Giant foxtail (giant foxtail; Rate 250 g/ha, Postemergence) | S. Flatsedge plant response rating (smallflower flatsedge; [8]) | S. Flatsedge plant response rating (smallflower flatsedge; [9]) | S. Flatsedge plant response rating (smallflower flatsedge; [10]) | S. Flatsedge plant response rating (smallflower flatsedge; [11]) | Nutsedge plant response rating (purple nutsedge; [2]) | Plant response rating, Nutsedge (purple nutsedge; [3]) | Nutsedge plant response rating (purple nutsedge; [6]) | Plant response rating (0 to 10; 0 is no effect, 10 is complete control), Nutsedge (purple nutsedge; Rate 250 g/ha, Postemergence) | Nutsedge plant response rating (purple nutsedge; [7]) | Ducksalad plant response rating (duck salad; [8]) | Ducksalad plant response rating (duck salad; [9]) | Ducksalad plant response rating (duck salad; [10]) | Ducksalad plant response rating (duck salad; [11]) | Wheat plant response rating (wheat; [1]) | Wheat plant response rating (wheat; [2]) | Wheat plant response rating (wheat; [6]) | Wheat plant response rating (wheat; [7]) | Barnyardgrass plant response rating (bamyardgrass; [8]) | Barnyardgrass plant response rating (bamyardgrass; [9]) | Barnyardgrass plant response rating (bamyardgrass; [10]) | Barnyardgrass plant response rating (bamyardgrass; [11]) | Rice plant response rating (rice; [8]) | Rice plant response rating (rice; [9]) | Rice plant response rating (rice; [10]) | Rice plant response rating (rice; [11]) | Morningglory plant response rating (morningglory; [1]) | Morningglory plant response rating (morningglory; [6]) | Bedstraw plant response rating (bedstraw; [1]) | Bedstraw plant response rating (bedstraw; [2]) | Plant response rating, Bedstraw (bedstraw; [3]) | Bedstraw plant response rating (bedstraw; [4]) | Bedstraw plant response rating (bedstraw; [5]) | Bedstraw plant response rating (bedstraw; [6]) | Plant response rating (0 to 10; 0 is no effect, 10 is complete control), Bedstraw (bedstraw; Rate 250 g/ha, Postemergence) | Bedstraw plant response rating (bedstraw; [7]) | Crabgrass plant response rating (crabgrass; [1]) | Cocklebur plant response rating (cocklebur; [1]) | Cocklebur plant response rating (cocklebur; [2]) | Plant response rating, Cocklebur (cocklebur; [3]) | Cocklebur plant response rating (cocklebur; [4]) | Cocklebur plant response rating (cocklebur; [5]) | Cocklebur plant response rating (cocklebur; [6]) | Plant response rating (0 to 10; 0 is no effect, 10 is complete control), Cocklebur (cocklebur; Rate 250 g/ha, Postemergence) | Cocklebur plant response rating (cocklebur; [7]) | Redroot pigweed plant response rating (pigweed; [1]) | Redroot pigweed plant response rating (pigweed; [2]) | Redroot pigweed plant response rating (pigweed; [6]) | Soybean plant response rating (soybean; [1]) | Soybean plant response rating (soybean; [2]) | Plant response rating, Soybean (soybean; [3]) | Soybean plant response rating (soybean; [6]) | Wild oats plant response rating (wild oat; [1]) | Wild oats plant response rating (wild oat; [2]) | Wild oats plant response rating (wild oat; [6]) | Wild oats plant response rating (wild oat; [7]) | Rape plant response rating (rape; [1]) | Rape plant response rating (rape; [2]) | Plant response rating, Rape (rape; [3]) | Rape plant response rating (rape; [6])
8: Plant response rating (0 to 10; 0 is no effect, 10 is complete control), Morningglory (morningglory; Rate 250 g/ha, Postemergence) | Morningglory plant response rating (morningglory; [7])
5: Sugarbeets plant response rating (sugar beet; [7]) | Plant response rating, Crabgrass (crabgrass; [3]) | Rape plant response rating (rape; [7])
6: Giant foxtail plant response rating (giant foxtail; [2]) | Giant foxtail plant response rating (giant foxtail; [6]) | Redroot pigweed plant response rating (pigweed; [7])
